From patent US7132524B2, “Plant brassinolide responsive genes and use thereof” (National Agriculture and Bio-oriented Research Organization, priority 2002, dated 2006)
“Also recorded” adds a separate entry of the source.

Assays:
[1] = test system: 1265 rice genes (EST clones); assay: cDNA microarray analysis of rice seedling leaf blade base after brassinolide treatment; format: in vivo, Rice (Nipponbare); conditions: base of leaf blades of rice seedling, 1 μM brassinolide, 48 hours; depending on the concentration
Method: Rice (Nipponbare) was grown at 25° C. and 75% humidity with a 12-hrs day and 12-hrs night under white fluorescent light (about 600 μmol·m^−2sec^−1). Commercially available, high quality brassinolide (BL), gibberellin (GA), and indole-3-acetic acid (IAA) were used for the present invention. The method of Chomczynski and Sacchi (Chomczynski P., Sacchi N., Ana. Biochem., 162: 156–159, 1987) was used to extract RNA for RNA blotting analysis. An mRNA purification kit oligotex-dT-30 (Takara), was used to prepare mRNA for micro-array analysis. A cDNA microarray containing 1265 EST clones was used. RNA was isolated from the base of leaf blades treated with 1 μM brassinolide for 48 hours. Reverse transcription reaction was performed for two hours at 42° C. using 1 μg of mRNA in the presence of 50 μM Cy5 dCTP (Amersham Pharmacia), and then stopped. After heated at 94° C. for 3 min, the resulting mixture was treated with NaOH at 37° C. for 15 min to digest the RNA, and then cDNA was recovered. Fluorescently labeled cDNA probe was purified using a QIA quick PCR purification kit (Qiagen). […] Data were analyzed according to Array Vision (Imaging Research). Total RNA was extracted from the base of leaf blades of rice (Nipponbare) seedling treated with 1 μM brassinolide, and the RNA was analyzed using cDNA microarrays containing 1265 rice genes. […]

[2] = test system: OsBLE1 and OsBLE2 genes; assay: Northern blotting analysis of OsBLE1 and OsBLE2 expression after plant hormone treatment; format: in vivo, Rice (Nipponbare); conditions: for expression of OsBLE1 and OsBLE2 following hormone treatment: leaf sheath and base of leaf blades, FIG. 2B-2C
Method: Rice (Nipponbare) was grown at 25° C. and 75% humidity with a 12-hrs day and 12-hrs night under white fluorescent light (about 600 μmol·m^−2sec^−1). Commercially available, high quality brassinolide (BL), gibberellin (GA), and indole-3-acetic acid (IAA) were used for the present invention. The method of Chomczynski and Sacchi (Chomczynski P., Sacchi N., Ana. Biochem., 162: 156–159, 1987) was used to extract RNA for RNA blotting analysis. An mRNA purification kit oligotex-dT-30 (Takara), was used to prepare mRNA for micro-array analysis. After tissue samples were quickly frozen in liquid nitrogen, about 0.5 g of the frozen tissue was ground into powder in a mortar and pestle. Total RNA was prepared by the method of Chomczynski and Sacchi (Chomczynski P., Sacchi N., Anal. Biochem., 162: 156–159, 1987). Then, mRNA for microarray analysis was purified from the total RNA using oligotexdT kit (Takara). For Northern blot analysis, 20 μg of the total RNA were electrophoresed in a 1.2% agarose gel containing 6% formaldehyde and then transferred to a Hybond™-N^+ nylon membrane. In order to ensure equivalent amount of RNAs were electrophoresed for Northern blotting, the present inventors stained gels with ethidium bromide to compare rRNA quantity. Hybridization was carried out at 42° C. overnight using ULTRAhyb™ (Ambion), and the membrane was washed with 2×SSC and 0.1% SDS at 42° C. for 5 min, and then with 0.1×SSC and 0.1% SDS at 68° C. for 15 min. Nylon membrane was exposed to X-ray film (Kodak). The expression patterns of the 12 genes were analyzed by Northern blotting. The present inventors then found two genes whose expression occurs one to six hours after brassinolide treatment and was increased in the leaf sheath and the base of leaf blades by auxin and brassinolide treatment (FIGS. 2A–2C). The present inventors named these two genes OsBLE1 and OsBLE2.

[3] = test system: Nipponbare rice cultivar; assay: Growth of rice transformed with antisense cDNA under CaMV 35S promoter; format: in vivo; conditions: antisense direction in pIG121-Hm, Agrobacterium EHA101, FIGS. 5B-5C
Source text: Two different cDNAs were inserted into an expression vector in the antisense direction. The resulting vector was then introduced into Agrobacterium (EHA101). The resulting Agrobacterium was used to transform Nipponbare rice cultivar by the ultrahigh-speed transformation method for monocotyledons (Japanese Patent No. 3141084).
Both of cDNAs of OsBLE1 and OsBLE2 were modified to have SalI restriction site at their 5′ end and to have XbaI restriction sites at their 3′ ends. The modified cDNAs were then digested with XbaI and SalI and inserted into a binary vector pIG121-Hm (Ohta S., Mita S., Hattori T., Nakamura K., Plant Cell Physiol., 31: 805–813, 1990) at XbaI (5′ end) and SalI (3′ end) sites (in the antisense direction) under the control of cauliflower mosaic virus 35S promoter. The recombinant binary vectors were introduced into Agrobacterium EHA101, and the resulting Agrobacterium was introduced into Nipponbare rice cultivar by ultrahigh-speed transformation method for monocotyledons. […] Therefore, the present inventors have succeeded in dwarfing a transformed plant in which expression of a gene that is induced by addition of a plant hormone, brassinolide, is regulated.

CC(C)[C@H](C)[C@@H](O)[C@H](O)[C@@H](C)[C@H]1CC[C@H]2[C@@H]3COC(=O)[C@H]4C[C@H](O)[C@H](O)C[C@]4(C)[C@H]3CC[C@]12C [brassinolide]
expression level of the 12 different genes [1]: markedly increased
time after treatment at which expression of OsBLE1 and OsBLE2 occurs / is induced ([2]; FIG. 2A): two to six; also recorded: one to six
expression of OsBLE1 and OsBLE2 following hormone treatment [2]: increased

OsBLE2: OsBLE2 cDNA (SEQ ID NO: 3) inserted in antisense direction in binary vector pIG121-Hm under CaMV 35S promoter
growth of stem and leaf of transformed rice compared to controls containing the vector alone [3]: suppressed growth of stem and leaf

O=C(O)Cc1c[nH]c2ccccc12 [IAA, indole-3-acetic acid]
expression of OsBLE1 and OsBLE2 following hormone treatment [2]: increased

C=C1C[C@]23C[C@@]1(O)CC[C@H]2[C@@]12C=C[C@H](O)[C@@](C)(C(=O)O1)[C@H]2[C@@H]3C(=O)O [GA3, gibberellin]
expression of OsBLE1 and OsBLE2 following hormone treatment [2]: increased

B1: OsBLE1: OsBLE1 cDNA (SEQ ID NO: 1) inserted in antisense direction in binary vector pIG121-Hm under CaMV 35S promoter (nucleic acid, listed as Oryza sativa)
DNA: AATTCGGCACGAGCGGCGGCGAGAGGAGCGGCGGCGATGGGCGGCGGCGGGCACGGCGGCGGCACGACGTACAAGGGGTACACCATCCCCCACAACAAGCGCTGGCACACCGTCGCCGGCAAGGGCCTCTGCGCCGTCATGTGGTTTTGGGTTTTCTACAGGGCTAAGCAGGACGGTGCTGTTCTCTTGGGCATGCGTCATCCTTGGGATGGTCATGATGATCACTCACATGGTCATGGGCATGAGCATGAGGGATCATCATCAACATCGTCGTCTCACTAAATCAACTGCTTCTTGGCGGCTGAGGGAGACTCGCTGCTTTGGTTGTCGCGATGAAATCCTCGAAGATAATAAAGTTTCACACTATTAATTTTATTAAGATGGGTTCATGTTGTTGGCAACTGTTTAAGGCAAACTGGTTATGTATTTTGCTTTTGAGATAGCCTCCCTCGATGGAAAACCCATGTATGTTGTTGCTTATTAGGCTGTGGACATCCTTTTGGATGTAGAGGCTGGGTTTTTAATCCATTATCTAAAAAAATGTTGTTGCTTCTTCCGATCAAAAAAAAAAAAAAAAAAAAAAAAAAAAAAAAAAAAA
modifications: antisense orientation in binary vector under 35S promoter; cDNA
growth of stem and leaf of transformed rice compared to controls containing the vector alone [3]: suppressed growth of stem and leaf
